Reference: PubChem BioAssay (NCI)
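Growth conditions: 96-well plates. Treatment: test compound, 48 hours, 5 concentrations. Analysis: linear interpolation between bracketing concentrations; unreached endpoints set to highest concentration. GI50 is the concentration that inhibits growth by half. TGI: concentration producing complete growth inhibition.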

Assays:
Experiment in all cases: growth of human tumour cells (NCI), 48 h
A549 NSCLC = system: A549 NSCLC
HCT-116 colon = system: HCT-116 colon
HOP-62 NSCLC = system: HOP-62 NSCLC
K-562 leukemia = system: K-562 leukemia
NCI-H460 lung = system: NCI-H460 lung
OVCAR-4 ovarian = system: OVCAR-4 ovarian
SF-295 CNS = system: SF-295 CNS
SF-539 CNS = system: SF-539 CNS
SNB-75 CNS = system: SNB-75 CNS
TK-10 renal = system: TK-10 renal

## Cc1c2ccn(O)cc2c(C)c2c1nc1ccccc12
A549 NSCLC
  TGI: > 100 µM
HCT-116 colon
  TGI: 24.7 µM
HOP-62 NSCLC
  TGI: 27.5 µM
K-562 leukemia
  TGI: > 81.4 µM
NCI-H460 lung
  TGI: 37.9 µM
OVCAR-4 ovarian
  TGI: > 100 µM
SF-295 CNS
  TGI: 23.4 µM
SF-539 CNS
  TGI: 11 µM
SNB-75 CNS
  TGI: 21.3 µM
TK-10 renal
  TGI: > 66.1 µM

## Cc1n[nH]c(=S)n(C)c1=S
A549 NSCLC
  TGI: > 100 µM
HCT-116 colon
  TGI: > 100 µM
HOP-62 NSCLC
  TGI: > 100 µM
K-562 leukemia
  TGI: > 100 µM
NCI-H460 lung
  TGI: > 100 µM
OVCAR-4 ovarian
  TGI: > 100 µM
SF-295 CNS
  TGI: > 100 µM
SF-539 CNS
  TGI: > 100 µM
SNB-75 CNS
  TGI: > 100 µM
TK-10 renal
  TGI: > 100 µM

## CCOC(=O)C(=O)Nc1nc2c(OCC)cccc2s1
A549 NSCLC
  TGI: > 100 µM
HCT-116 colon
  TGI: > 100 µM
HOP-62 NSCLC
  TGI: > 100 µM
K-562 leukemia
  TGI: > 100 µM
NCI-H460 lung
  TGI: > 100 µM
OVCAR-4 ovarian
  TGI: > 100 µM
SF-295 CNS
  TGI: > 100 µM
SF-539 CNS
  TGI: > 100 µM
SNB-75 CNS
  TGI: > 100 µM
TK-10 renal
  TGI: > 100 µM

## CCCCCCCCCCCCCCCCCc1nccn1CCOCCO
A549 NSCLC
  GI50: 4.88 µg/mL
  TGI: 10.2 µg/mL
HCT-116 colon
  GI50: 5.94 µg/mL
  TGI: 11.9 µg/mL
HOP-62 NSCLC
  GI50: 5.37 µg/mL
  TGI: 10.8 µg/mL
K-562 leukemia
  GI50: 4.87 µg/mL
  TGI: 12.1 µg/mL
NCI-H460 lung
  GI50: 5.66 µg/mL
  TGI: 11.9 µg/mL
OVCAR-4 ovarian
  GI50: 4.46 µg/mL
  TGI: 9.62 µg/mL
SF-295 CNS
  GI50: 5.27 µg/mL
  TGI: 11 µg/mL
SF-539 CNS
  GI50: 5.74 µg/mL
  TGI: 11.1 µg/mL
SNB-75 CNS
  GI50: 4.88 µg/mL
  TGI: 9.7 µg/mL
TK-10 renal
  GI50: 5.31 µg/mL
  TGI: 10.4 µg/mL

## O=C(O)[C@H](Cc1c[nH]c2ccccc12)N1C(=O)c2ccccc2C1=O
A549 NSCLC
  TGI: > 100 µM
HCT-116 colon
  TGI: > 100 µM
HOP-62 NSCLC
  TGI: > 100 µM
K-562 leukemia
  GI50: > 100 µM
  TGI: > 100 µM
NCI-H460 lung
  TGI: > 100 µM
OVCAR-4 ovarian
  TGI: > 100 µM
SF-295 CNS
  TGI: > 100 µM
SF-539 CNS
  TGI: > 100 µM
SNB-75 CNS
  TGI: > 100 µM
TK-10 renal
  TGI: > 100 µM

## N.N.N.N.N.NC(=O)[O-].[Co+3].[I-]
A549 NSCLC
  GI50: > 100 µM
  TGI: > 100 µM
HCT-116 colon
  GI50: > 100 µM
  TGI: > 100 µM
HOP-62 NSCLC
  GI50: > 100 µM
  TGI: > 100 µM
K-562 leukemia
  GI50: > 100 µM
  TGI: > 100 µM
NCI-H460 lung
  GI50: > 100 µM
  TGI: > 100 µM
OVCAR-4 ovarian
  GI50: > 100 µM
  TGI: > 100 µM
SF-295 CNS
  GI50: > 100 µM
  TGI: > 100 µM
SF-539 CNS
  GI50: > 100 µM
  TGI: > 100 µM
SNB-75 CNS
  GI50: 18.7 µM
  TGI: > 100 µM
TK-10 renal
  GI50: > 100 µM
  TGI: > 100 µM

## CCCCOC(=O)c1ccc(N)cc1
A549 NSCLC
  GI50: 32.3 µM
  TGI: > 100 µM
HCT-116 colon
  GI50: 90 µM
  TGI: > 100 µM
HOP-62 NSCLC
  GI50: > 100 µM
  TGI: > 100 µM
K-562 leukemia
  GI50: 6.66 µM
  TGI: > 100 µM
NCI-H460 lung
  GI50: 34.3 µM
  TGI: > 100 µM
OVCAR-4 ovarian
  GI50: > 100 µM
  TGI: > 100 µM
SF-295 CNS
  GI50: 19 µM
  TGI: 89.1 µM
SF-539 CNS
  GI50: 30 µM
  TGI: > 100 µM
SNB-75 CNS
  GI50: 41 µM
  TGI: > 100 µM
TK-10 renal
  GI50: 92 µM
  TGI: > 100 µM

## COC(=O)C1=C(O)[C@H](C(=O)OC)C2(O)C(C(=O)OC)[C@H](c3ccc(OC(=O)C(C)c4ccccc4)cc3)C[C@@H]1[C@@H]2C(=O)OC (stereo partly specified)
A549 NSCLC
  GI50: 19.4 µM
  TGI: > 50 µM
HCT-116 colon
  GI50: 17.3 µM
  TGI: > 50 µM
HOP-62 NSCLC
  GI50: 23.8 µM
  TGI: > 50 µM
K-562 leukemia
  GI50: 19.4 µM
  TGI: > 50 µM
NCI-H460 lung
  GI50: 19.4 µM
  TGI: > 50 µM
OVCAR-4 ovarian
  GI50: 21.5 µM
  TGI: > 50 µM
SF-295 CNS
  GI50: 16.1 µM
  TGI: > 50 µM
SF-539 CNS
  GI50: 11.8 µM
  TGI: 34.1 µM
SNB-75 CNS
  GI50: 16.6 µM
  TGI: > 50 µM
TK-10 renal
  GI50: 48.6 µM
  TGI: > 50 µM

## CC1=CC(C)=NN=C(N)N1S(=O)(=O)c1cc(C)c(Cl)cc1SCc1ccccc1
A549 NSCLC
  GI50: 31.3 µM
  TGI: > 100 µM
HCT-116 colon
  GI50: 7.2 µM
  TGI: > 100 µM
HOP-62 NSCLC
  GI50: 72.4 µM
  TGI: > 100 µM
K-562 leukemia
  GI50: 9.22 µM
  TGI: > 100 µM
NCI-H460 lung
  GI50: 9.22 µM
  TGI: > 100 µM
OVCAR-4 ovarian
  GI50: 11.5 µM
  TGI: > 100 µM
SF-295 CNS
  GI50: 34.3 µM
  TGI: > 100 µM
SF-539 CNS
  GI50: > 100 µM
  TGI: > 100 µM
SNB-75 CNS
  GI50: 23.5 µM
  TGI: > 100 µM
TK-10 renal
  GI50: > 100 µM
  TGI: > 100 µM

## CCCCC(CCCCCC(CCCC)NCc1ccc2c(c1)OCO2)NCc1ccc2c(c1)OCO2 (stereo unspecified)
A549 NSCLC
  GI50: 0.426 µM
  TGI: 1.02 µM
HCT-116 colon
  GI50: 0.194 µM
  TGI: 0.369 µM
HOP-62 NSCLC
  GI50: 0.836 µM
  TGI: 2.13 µM
K-562 leukemia
  GI50: 0.186 µM
  TGI: 0.46 µM
NCI-H460 lung
  GI50: 0.236 µM
  TGI: 0.519 µM
OVCAR-4 ovarian
  GI50: 1.46 µM
  TGI: 2.81 µM
SF-295 CNS
  GI50: 1.76 µM
  TGI: 3.4 µM
SF-539 CNS
  GI50: 0.664 µM
  TGI: 1.48 µM
SNB-75 CNS
  GI50: 1.46 µM
  TGI: 2.78 µM
TK-10 renal
  GI50: 1.43 µM
  TGI: 2.88 µM

## O=C(CC1(O)C(=O)N(Cc2ccccc2)c2ccc(Cl)cc21)c1ccc(C(=O)NCC2CCC3(CC2)OOC2(CCCCC2)OO3)cc1 (stereo unspecified)
A549 NSCLC
  GI50: 0.215 µM
  TGI: 0.456 µM
HCT-116 colon
  GI50: 1.3 µM
  TGI: 4.29 µM
HOP-62 NSCLC
  GI50: 0.189 µM
  TGI: 0.39 µM
K-562 leukemia
  GI50: 1.57 µM
  TGI: > 100 µM
NCI-H460 lung
  GI50: 0.231 µM
  TGI: 0.491 µM
OVCAR-4 ovarian
  GI50: 2.45 µM
  TGI: 11.5 µM
SF-295 CNS
  GI50: 0.57 µM
  TGI: 1.34 µM
SF-539 CNS
  GI50: 0.191 µM
  TGI: 0.379 µM
SNB-75 CNS
  GI50: 1.35 µM
  TGI: 3.39 µM
TK-10 renal
  GI50: 0.181 µM
  TGI: 0.358 µM
